According to BindingDB's records for doi:10.1021/jm060108a (University of Liège, 2006):

Experiment: Inhibition of U46619-induced platelet aggregation

Row | SMILES | IC50
1 | CCCCCNC(=O)NS(=O)(=O)c1cc([N+](=O)[O-])ccc1Oc1ccc(C)cc1 [N-n-pentyl-N'-[2-(4-methylphenoxy)-5-nitrobenzenesulfonyl]urea] | 670 nM
2 | Cc1ccc(Sc2ccc([N+](=O)[O-])cc2S(=O)(=O)NC(=O)NC(C)(C)C)cc1 [N-tert-butyl-N'-[2-(4-methylphenylthio)-5-nitrobenzenesulfonyl]urea] | 800 nM
3 | Cc1cccc(C)c1Nc1ccc([N+](=O)[O-])cc1S(=O)(=O)NC(=O)NC(C)(C)C [N-tert-butyl-N'-[2-(2,6-dimethylphenylamino)-5-nitrobenzenesulfonyl]urea] | 90 nM
4 | Cc1ccc(Oc2ccc([N+](=O)[O-])cc2S(=O)(=O)NC(=O)NC(C)(C)C)cc1 [N-tert-butyl-N'-[2-(4-methylphenoxy)-5-nitrobenzenesulfonyl]urea] | 300 nM
5 | Cc1ccc(Nc2ccc([N+](=O)[O-])cc2S(=O)(=O)NC(=O)N2CCCCC2)cc1 [N-[2-(4-methylphenylamino)-5-nitrobenzenesulfonyl]-piperidine-1-carboxamide] | 900 nM
6 | Cc1ccc(Nc2ccc([N+](=O)[O-])cc2S(=O)(=O)NC(=O)NC(C)(C)C)cc1 [BM 573] | 240 nM
7 | CCCCCNC(=O)NS(=O)(=O)c1cc([N+](=O)[O-])ccc1Nc1ccc(C)cc1 | 278 nM
